Assay results taken from ChEMBL document CHEMBL1671646, “Identification, characterization, and azole-binding properties of Mycobacterium smegmatis CYP164A2, a homolog of ML2088, the sole cytochrome P450 gene of Mycobacterium leprae” (Antimicrob Agents Chemother, 2009).
pKd: −log10 of the molar value.

Experiments:
[1] = Binding affinity to Mycobacterium smegmatis ATCC 700084 CYP51 at pH7.5; set-up: species or system Mycolicibacterium smegmatis
[2] = Binding affinity to Mycobacterium smegmatis ATCC 700084 CYP51 in presence of 0.5 M NaCl at pH7.5; set-up: species or system Mycolicibacterium smegmatis
[3] = Binding affinity to Mycobacterium smegmatis ATCC 700084 CYP164A2 at pH7.5; set-up: species or system Mycolicibacterium smegmatis
[4] = Binding affinity to Mycobacterium smegmatis ATCC 700084 CYP164A2 in presence of 0.5 M NaCl at pH7.5; set-up: species or system Mycolicibacterium smegmatis
[5] = biological target: T1, Cytochrome P450 130 (Mycobacterium tuberculosis, UniProt P9WPN5); test: Binding affinity to Mycobacterium tuberculosis CYP130
T1 sequence (P9WPN5 whole entry): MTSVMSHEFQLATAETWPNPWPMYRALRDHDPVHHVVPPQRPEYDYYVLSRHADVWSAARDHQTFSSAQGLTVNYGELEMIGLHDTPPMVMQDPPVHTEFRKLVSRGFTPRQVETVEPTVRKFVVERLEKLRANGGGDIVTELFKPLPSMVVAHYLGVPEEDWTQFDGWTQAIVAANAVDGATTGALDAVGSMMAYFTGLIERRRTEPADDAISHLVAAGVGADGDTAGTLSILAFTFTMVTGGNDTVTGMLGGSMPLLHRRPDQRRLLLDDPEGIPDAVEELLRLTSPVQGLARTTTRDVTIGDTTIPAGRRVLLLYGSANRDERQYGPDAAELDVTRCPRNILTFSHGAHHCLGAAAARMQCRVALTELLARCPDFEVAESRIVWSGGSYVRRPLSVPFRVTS

[6] = system: Mycolicibacterium smegmatis; test: Selectivity ratio, ratio of Kd for Mycobacterium smegmatis ATCC 700084 CYP164A2 to Kd for Mycobacterium smegmatis ATCC 700084 CYP51
[7] = Selectivity ratio, ratio of Kd for Mycobacterium smegmatis ATCC 700084 CYP164A2 to Kd for Mycobacterium tuberculosis CYP121
[8] = biological target: T2, Sterol 14alpha-demethylase (Mycobacterium tuberculosis, UniProt P9WPP9)
T2 sequence (P9WPP9 whole entry): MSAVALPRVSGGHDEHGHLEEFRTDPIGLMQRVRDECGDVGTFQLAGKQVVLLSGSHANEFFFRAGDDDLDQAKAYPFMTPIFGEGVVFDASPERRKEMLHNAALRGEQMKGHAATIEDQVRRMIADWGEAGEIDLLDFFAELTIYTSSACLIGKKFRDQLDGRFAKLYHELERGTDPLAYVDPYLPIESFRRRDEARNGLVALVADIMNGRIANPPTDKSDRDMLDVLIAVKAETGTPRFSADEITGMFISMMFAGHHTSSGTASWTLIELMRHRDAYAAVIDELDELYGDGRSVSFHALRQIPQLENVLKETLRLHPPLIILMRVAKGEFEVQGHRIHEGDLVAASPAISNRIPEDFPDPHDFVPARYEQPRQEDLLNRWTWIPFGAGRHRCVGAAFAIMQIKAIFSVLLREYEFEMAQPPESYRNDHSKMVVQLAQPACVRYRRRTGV
Description: Binding affinity to Mycobacterium tuberculosis CYP51

[9] = biological target: T3, Mycocyclosin synthase (Mycobacterium tuberculosis, UniProt P9WPP7); test: Binding affinity to Mycobacterium tuberculosis CYP121
T3 sequence (P9WPP7 whole entry): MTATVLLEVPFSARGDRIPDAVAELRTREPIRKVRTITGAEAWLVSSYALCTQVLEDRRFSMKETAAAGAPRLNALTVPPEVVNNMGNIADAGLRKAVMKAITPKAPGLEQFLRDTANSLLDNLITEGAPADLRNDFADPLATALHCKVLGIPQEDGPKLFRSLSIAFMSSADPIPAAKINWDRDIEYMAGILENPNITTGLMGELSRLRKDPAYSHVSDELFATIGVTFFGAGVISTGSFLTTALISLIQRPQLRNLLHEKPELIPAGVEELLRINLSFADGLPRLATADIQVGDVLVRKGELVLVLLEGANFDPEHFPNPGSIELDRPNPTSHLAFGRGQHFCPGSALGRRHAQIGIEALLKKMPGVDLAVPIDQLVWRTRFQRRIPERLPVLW

[10] = system: Mycolicibacterium smegmatis; test: Selectivity ratio of Kd for Mycobacterium smegmatis ATCC 700084 CYP164A2 in presence of 0.5 M NaCl to Kd for Mycobacterium smegmatis ATCC 700084 CYP164A2
[11] = biological target: T4, Lanosterol 14-alpha demethylase (Bos taurus, UniProt Q4PJW3); test: Binding affinity to bovine CYP51
T4 sequence (Q4PJW3 whole entry): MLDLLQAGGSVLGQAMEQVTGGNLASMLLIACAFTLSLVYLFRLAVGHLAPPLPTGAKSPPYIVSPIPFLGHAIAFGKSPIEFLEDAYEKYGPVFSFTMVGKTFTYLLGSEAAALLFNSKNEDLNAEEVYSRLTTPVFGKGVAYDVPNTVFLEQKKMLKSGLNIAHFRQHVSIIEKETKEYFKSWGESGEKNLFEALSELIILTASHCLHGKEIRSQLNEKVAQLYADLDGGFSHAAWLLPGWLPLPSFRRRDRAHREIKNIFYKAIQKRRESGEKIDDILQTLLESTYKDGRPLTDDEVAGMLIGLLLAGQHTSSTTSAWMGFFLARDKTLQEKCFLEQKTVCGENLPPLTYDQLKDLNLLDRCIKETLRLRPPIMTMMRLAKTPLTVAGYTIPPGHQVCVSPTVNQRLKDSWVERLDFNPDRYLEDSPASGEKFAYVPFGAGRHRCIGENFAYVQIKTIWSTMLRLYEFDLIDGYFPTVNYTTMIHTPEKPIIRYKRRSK

[12] = Binding affinity to Mycobacterium smegmatis ATCC 700084 CYP164A2 in presence of 0.05 M NaCl; set-up: species or system Mycolicibacterium smegmatis
[13] = Binding affinity to Mycobacterium smegmatis ATCC 700084 CYP164A2 in presence of 0.1 M NaCl; set-up: species or system Mycolicibacterium smegmatis
[14] = Binding affinity to Mycobacterium smegmatis ATCC 700084 CYP164A2 in presence of 0.2 M NaCl; set-up: species or system Mycolicibacterium smegmatis
[15] = Binding affinity to Mycobacterium smegmatis ATCC 700084 CYP164A2 in presence of 0.3 M NaCl; set-up: species or system Mycolicibacterium smegmatis
[16] = Binding affinity to Mycobacterium smegmatis ATCC 700084 CYP164A2 in presence of 1 M NaCl; set-up: species or system Mycolicibacterium smegmatis
[17] = Binding affinity to Mycobacterium smegmatis ATCC 700084 CYP164A2 in presence of 2 M NaCl; set-up: species or system Mycolicibacterium smegmatis
[18] = system: Mycolicibacterium smegmatis; test: Selectivity ratio, ratio of Kd for Mycobacterium smegmatis ATCC 700084 CYP164A2 in presence of 0.3 M NaCl to Kd for Mycobacterium smegmatis ATCC 700084 CYP164A2

Compound	pKd [1]	pKd [2]	pKd [3]	pKd ([4]; read-out: Kd)	Ratio [10]	also measured
Clc1ccccc1C(c1ccccc1)(c1ccccc1)n1ccnc1 [CLOTRIMAZOLE]	6.21	6.37	5.92	5.58	–	pKd [5]: 4.88
Clc1ccc(COC(Cn2ccnc2)c2ccc(Cl)cc2Cl)cc1 (stereo not given) [ECONAZOLE]	6.06	5.78	5.60	–	–	pKd [4]: 5.03; Ratio [6]: 2; Ratio [7]: 17; pKd [8]: 6.70
OC(Cn1cncn1)(Cn1cncn1)c1ccc(F)cc1F [FLUCONAZOLE]	4.71	5.23	–	–	–	pKd [9]: 5.22
CCC(C)n1ncn(-c2ccc(N3CCN(c4ccc(OCC5COC(Cn6cncn6)(c6ccc(Cl)cc6Cl)O5)cc4)CC3)cc2)c1=O (stereo not given) [ITRACONAZOLE]	5.90	5.52	6.11	5.95	3	–
CC(=O)N1CCN(c2ccc(OCC3COC(Cn4ccnc4)(c4ccc(Cl)cc4Cl)O3)cc2)CC1 (stereo not given) [KETOCONAZOLE]	5.13	5.34	5.24	5.13	3	pKd [11]: 6.49
Clc1ccc(COC(Cn2ccnc2)c2ccc(Cl)cc2Cl)c(Cl)c1 (stereo not given) [MICONAZOLE]	5.94	6.03	5.61	5.25	–	Ratio [6]: 2; Ratio [7]: 17; pKd [8]: 6.70
C[C@@H](c1ncncc1F)[C@](O)(Cn1cncn1)c1ccc(F)cc1F [VORICONAZOLE]	5.23	5.34	5.49	4.71	3	pKd [12]: 5.08; pKd [13]: 4.75; pKd [14]: 4.70; pKd [15]: 4.47; pKd [16]: 5.01; pKd [17]: 4.88; Ratio [18]: 12
